Measured values: patent US5849755A, “3-amidochromanylsulfonyl(thio)ureas, processes for their preparation, their use, and pharmaceutical preparations comprising them” (Hoechst Aktiengesellschaft, priority 1996, dated 1998)

Columns and labels:
RINm5F cells = assay: Test 2: Membrane potential on isolated β cells (RINm5F, whole cell patch clamp); assay type: cell-based; conditions: diazoxide 100 μmol/l in bath, 34°±1° C.
From the text: Test 2: Membrane potential on isolated β cells The action mechanism of hypoglycemic sulfonylureas is understood in principle. The β cells of the pancreas are the target organ of sulfonylureas, where they bring about a release of the hypoglycemic hormone insulin by influencing the electrical potential of the cell membrane. A hypoglycemic sulfonylurea, for example glibenclamide, has the effect of depolarizing the cell membrane, which leads to an increased inflow of calcium ions and, as a consequence thereof, to the release of insulin. The extent AU of this depolarization of the cell membrane caused by the substances according to the invention was determined on insulin-secreting RINm5F cells, a pancreas tumor cell line. The activity of a compound in this model predicts the extent of the hypoglycemic potential of this compound. Cell cultures of RINm5F cells: RINm5F cells were cultured at 37° C. in RPMI 1640 culture medium (Flow) to which 11 mM glucose, 10% (volume/volume) fetal calf serum, 2 mM glutamine and 50 μg/ml of gentamycin were added. The cells were sown on Petri dishes every 2 to 3 days and kept at a temperature of 37° C. in a moistened atmosphere of […] and 5% CO2. For the investigations, the cells were isolated by incubation (about 3 minutes) in a Ca^2+ -free medium which comprised 0.25% trypsin. Measurement method: Isolated RINm5F cells were introduced into a Plexiglas chamber on an inverse microscope which was equipped with a differential interference contrast lens. Under visual control (400-fold magnification),a fire-polished micropipette with an opening diameter of about 1 μm was placed on the cell with the aid of a micromanipulator. By applying a slight reduced pressure to the inside of the patch pipette, a high electrical seal was initially established between the glass and the cell membrane. By increasing the reduced pressure, the membrane patch under the […] pipette was then broken open. In this whole cell configuration,the cell potential was recorded with the aid of a patch clamp amplifier (L/M EPC 7, List, Darmstadt) and the whole cell current was measured by applying a voltage ramp. […] Stock solutions (concentration 100 mmol/l) of the test substances in dimethyl sulfoxide (DMSO) and corresponding dilutions in NaCl solution were prepared. DMSO alone had no effect on the cell potential. To stabilize the cell potential, diazoxide (100 μmol/l), an opener of ATP-sensitive K^+ channels, was added to the bath solution in all experiments. All experiments were carried out at 34°±1° C. The following values ΔU (changes in the cell potentials caused by the addition of the test substances) were measured. The control values in parentheses are the cell potentials U before the addition of the test substances. For comparison the values obtained in this test with glibenclamide, a typical hypoglycemic benzenesulfonylurea, are given.

[1] = system: papillary muscle of the guinea pig; assay: Test 1: Duration of the action potential of the papillary muscle of the guinea pig (APD95, shortened by HOE 234); assay type: cell-based; conditions: HOE 234 1 μg/ml in bath, 30 minutes after addition, mean of n = 3, control with HOE 234 alone <40
From the text: Test 1: Duration of the action potential of the papillary muscle of the guinea pig
ATP deficiency states such as are observed in the cardiac muscle cell during ischemia lead to a shortening of the duration of the action potential. They are regarded as one of the causes of so-called "re-entry arrhythmias," which can cause sudden cardiac death. The opening of ATP-sensitive potassium channels as a result of the fall in ATP is regarded as the cause of this.
A standard microelectrode technique was employed to measure the action potential. For this, guinea pigs of both sexes were sacrificed by a blow to the head, the hearts were removed and the papillary muscles were separated out and suspended in an organ bath. The organ bath was flushed with Ringer's solution (0.9% NaCl, 0.048% KCl, 0.024% CaCl2, 0.02% NaHCO3 and 0.1% glucose) and gassed with a mixture of 95% oxygen and 5% carbon dioxide at a temperature of 36° C. The muscle was stimulated via an electrode with rectangular pulses of 1 V and 1 ms duration and a frequency of 2 Hz. The action potential was derived through a glass microelectrode which was inserted intracellularly and filled with 3M KCl solution, and recorded. The substances to be tested were added to the Ringer's solution in a concentration of 2×10^-6 mol per liter or 2×10^-5 mol per liter. The action potential was amplified with a Hugo Sachs amplifier and shown on an oscilloscope. The duration of the action potential in milliseconds (ms) was determined at a degree of repolarization of 95% (APD95). Shortenings of the action potential were induced by addition of a solution of the potassium channel opener HOE 234 (Rilmakalim) (W. Linz, E. Klaus, U. Albus, R. H. A. Becker, D. Mania, H. C. Englert, B. A. Scholkens, Arzneimittelforschung/Drug Research, Volume 42 (II), 1992, 1180-1185), a concentration of HOE 234 in the bath solution of 1 μg/ml being established. The test substances were added to the bath solution as stock solutions in propanediol. The values stated are based on measurements 30 minutes after the addition. As a control, the APD95 value was determined in the presence of HOE 234 and in the absence of the test substance.
The measurement values (mean values from n experiments) are followed by the corresponding blank values in parentheses. The blank values are the APD95 values which were measured at the start of the experiment without HOE 234 and test substance in the Ringer's solution. The values obtained show the normalizing effect of the compounds according to the invention on a shortened duration of the action potential.

Row | Compound | ΔU (mV), change in the cell potential caused by the addition of the test substance (RINm5F cells; 1 μmol/l) [mV] | ΔU (mV), change in the cell potential caused by the addition of the test substance (RINm5F cells; 10 μmol/l) [mV] | APD95 -HOE 234 ([1]; test substance 20 μmol/l) [ms] | APD95 -HOE 234 ([1]; test substance 2 μmol/l) [ms]
1 | CNC(=O)NS(=O)(=O)c1cc2c(cc1OC)OCC(NC(=O)c1cc(Cl)ccc1OC)C2 (stereo not shown) [Example 1, 3-(5-Chloro-2-methoxybenzamido)-6-(methylaminocarbonylaminosulfonyl)-7-methoxychroman] | 6 | 24 | 157 ± 36 | –
2 | CCNC(=S)NS(=O)(=O)c1cc2c(cc1OC)OCC(NC(=O)c1cc(Cl)ccc1OC)C2 (stereo not shown) [Example 7, 3-(5-Chloro-2-methoxybenzamido)-6-(ethylaminothiocarbonylaminosulfonyl)-7-methoxychroman] | 29 | – | – | 130 ± 28.1
3 | COc1ccc(Cl)cc1C(=O)NCCc1ccc(S(=O)(=O)NC(=O)NC2CCCCC2)cc1 [Glibenclamide, glibenclamide, reference compound] | 47 | 46 | – | –
4 | CNC(=S)NS(=O)(=O)c1cc2c(cc1OC)OCC(NC(=O)c1cc(Cl)ccc1OC)C2 (stereo not shown) [Example 6] | 3 | – | – | 145 ± 19.1
5 | CCCNC(=O)NS(=O)(=O)c1cc2c(cc1OC)OCC(NC(=O)c1cc(Cl)ccc1OC)C2 (stereo not shown) [Example 3, 3-(5-Chloro-2-methoxybenzamido)-6-(n-propylamino-carbonylaminosulfonyl)-7-methoxychroman] | 18 | 23 | 134 ± 9 | –
6 | COc1ccc(F)cc1C(=O)NC1Cc2cc(S(=O)(=O)NC(=S)NC(C)C)c(OC)cc2OC1(C)C (stereo not shown) [Example 21, 3-(5-Fluoro-2-methoxybenzamido)-2,2-dimethyl-6-(isopropylaminothiocarbonylaminosulfonyl)-7-methoxychroman] | – | – | – | 67 ± 10
